From ChEMBL document CHEMBL1149767, “Structural and biological studies of mononuclear palladium(II) complexes containing N-substituted thiosemicarbazones” (2008)

Columns and labels:
Assay type in all cases: functional
Escherichia coli [1] = experiment: Antibacterial activity against Escherichia coli assessed as diameter of inhibition zone at 0.5% after 24 hrs
Pseudomonas aeruginosa [2] = experiment: Antibacterial activity against Pseudomonas aeruginosa assessed as diameter of inhibition zone at 0.5% after 24 hrs
Vibrio cholerae [3] = experiment: Antibacterial activity against Vibrio cholerae assessed as diameter of inhibition zone at 0.5% after 24 hrs; parameters: scale not given: the % may be the effect or the level left
Escherichia coli [4] = experiment: Antibacterial activity against Escherichia coli assessed as diameter of inhibition zone at 1.0% after 24 hrs
Staphylococcus aureus [5] = experiment: Antibacterial activity against Staphylococcus aureus assessed as diameter of inhibition zone at 1.0% after 24 hrs
Pseudomonas aeruginosa [6] = experiment: Antibacterial activity against Pseudomonas aeruginosa assessed as diameter of inhibition zone at 1.0% after 24 hrs
Vibrio cholerae [7] = experiment: Antibacterial activity against Vibrio cholerae assessed as diameter of inhibition zone at 1.0% after 24 hrs; parameters: scale not given: the % may be the effect or the level left
Staphylococcus aureus [8] = experiment: Antibacterial activity against Staphylococcus aureus assessed as diameter of inhibition zone at 2.0% after 24 hrs
Pseudomonas aeruginosa [9] = experiment: Antibacterial activity against Pseudomonas aeruginosa assessed as diameter of inhibition zone at 2.0% after 24 hrs
Vibrio cholerae [10] = experiment: Antibacterial activity against Vibrio cholerae assessed as diameter of inhibition zone at 2.0% after 24 hrs; parameters: scale not given: the % may be the effect or the level left
Escherichia coli [11] = experiment: Antibacterial activity against Escherichia coli assessed as diameter of inhibition zone at 0.25% after 24 hrs
Vibrio cholerae [12] = experiment: Antibacterial activity against Vibrio cholerae assessed as diameter of inhibition zone at 0.25% after 24 hrs; parameters: scale not given: the % may be the effect or the level left
Staphylococcus aureus [13] = experiment: Antibacterial activity against Staphylococcus aureus assessed as diameter of inhibition zone at 0.5% after 24 hrs
Escherichia coli [14] = experiment: Antibacterial activity against Escherichia coli assessed as diameter of inhibition zone at 2.0% after 24 hrs
Staphylococcus aureus [15] = experiment: Antibacterial activity against Staphylococcus aureus assessed as diameter of inhibition zone at 0.25% after 24 hrs
Pseudomonas aeruginosa [16] = experiment: Antibacterial activity against Pseudomonas aeruginosa assessed as diameter of inhibition zone at 0.25% after 24 hrs

Oc1ccccc1/C=N/NC(=S)Nc1ccccc1
inhibition zone (IZ) (Escherichia coli [1]): 7 mm | inhibition zone (IZ) (Pseudomonas aeruginosa [2]): 5 mm | Activity (Vibrio cholerae [3]): 6% | inhibition zone (IZ) (Escherichia coli [4]): 8 mm | inhibition zone (IZ) (Staphylococcus aureus [5]): 8 mm | inhibition zone (IZ) (Pseudomonas aeruginosa [6]): 7 mm | Activity (Vibrio cholerae [7]): 8% | inhibition zone (IZ) (Staphylococcus aureus [8]): 9 mm | inhibition zone (IZ) (Pseudomonas aeruginosa [9]): 9 mm | Activity (Vibrio cholerae [10]): 9% | inhibition zone (IZ) (Escherichia coli [11]): 5 mm | Activity (Vibrio cholerae [12]): 4% | inhibition zone (IZ) (Staphylococcus aureus [13]): 6 mm

CN[C@@H]1[C@H](O[C@H]2[C@H](O[C@H]3[C@H](O)[C@@H](O)[C@H](N=C(N)N)[C@@H](O)[C@@H]3N=C(N)N)O[C@@H](C)[C@]2(O)C=O)O[C@@H](CO)[C@H](O)[C@H]1O [STREPTOMYCIN]
inhibition zone (IZ) (Escherichia coli [1]): 20 mm | inhibition zone (IZ) (Pseudomonas aeruginosa [2]): 21 mm | Activity (Vibrio cholerae [3]): 17% | inhibition zone (IZ) (Escherichia coli [4]): 22 mm | inhibition zone (IZ) (Staphylococcus aureus [5]): 23 mm | inhibition zone (IZ) (Pseudomonas aeruginosa [6]): 23 mm | Activity (Vibrio cholerae [7]): 20% | inhibition zone (IZ) (Escherichia coli [14]): 25 mm | inhibition zone (IZ) (Staphylococcus aureus [8]): 25 mm | inhibition zone (IZ) (Pseudomonas aeruginosa [9]): 24 mm | Activity (Vibrio cholerae [10]): 22% | inhibition zone (IZ) (Escherichia coli [11]): 18 mm | inhibition zone (IZ) (Staphylococcus aureus [15]): 17 mm | inhibition zone (IZ) (Pseudomonas aeruginosa [16]): 18 mm | Activity (Vibrio cholerae [12]): 14% | inhibition zone (IZ) (Staphylococcus aureus [13]): 19 mm
